Patent US10392368B2, “Pyrazolo and triazolo bicyclic compounds as JAK kinase inhibitors” (THERAVANCE BIOPHARMA R&D IP, LLC, priority 2017, dated 2019)

target: T1, JAK3 (Homo sapiens, UniProt P52333); assay: Co-crystal structures bound to human JAK3; conditions: ATP binding site of human JAK3
T1 sequence (P52333 1-1124): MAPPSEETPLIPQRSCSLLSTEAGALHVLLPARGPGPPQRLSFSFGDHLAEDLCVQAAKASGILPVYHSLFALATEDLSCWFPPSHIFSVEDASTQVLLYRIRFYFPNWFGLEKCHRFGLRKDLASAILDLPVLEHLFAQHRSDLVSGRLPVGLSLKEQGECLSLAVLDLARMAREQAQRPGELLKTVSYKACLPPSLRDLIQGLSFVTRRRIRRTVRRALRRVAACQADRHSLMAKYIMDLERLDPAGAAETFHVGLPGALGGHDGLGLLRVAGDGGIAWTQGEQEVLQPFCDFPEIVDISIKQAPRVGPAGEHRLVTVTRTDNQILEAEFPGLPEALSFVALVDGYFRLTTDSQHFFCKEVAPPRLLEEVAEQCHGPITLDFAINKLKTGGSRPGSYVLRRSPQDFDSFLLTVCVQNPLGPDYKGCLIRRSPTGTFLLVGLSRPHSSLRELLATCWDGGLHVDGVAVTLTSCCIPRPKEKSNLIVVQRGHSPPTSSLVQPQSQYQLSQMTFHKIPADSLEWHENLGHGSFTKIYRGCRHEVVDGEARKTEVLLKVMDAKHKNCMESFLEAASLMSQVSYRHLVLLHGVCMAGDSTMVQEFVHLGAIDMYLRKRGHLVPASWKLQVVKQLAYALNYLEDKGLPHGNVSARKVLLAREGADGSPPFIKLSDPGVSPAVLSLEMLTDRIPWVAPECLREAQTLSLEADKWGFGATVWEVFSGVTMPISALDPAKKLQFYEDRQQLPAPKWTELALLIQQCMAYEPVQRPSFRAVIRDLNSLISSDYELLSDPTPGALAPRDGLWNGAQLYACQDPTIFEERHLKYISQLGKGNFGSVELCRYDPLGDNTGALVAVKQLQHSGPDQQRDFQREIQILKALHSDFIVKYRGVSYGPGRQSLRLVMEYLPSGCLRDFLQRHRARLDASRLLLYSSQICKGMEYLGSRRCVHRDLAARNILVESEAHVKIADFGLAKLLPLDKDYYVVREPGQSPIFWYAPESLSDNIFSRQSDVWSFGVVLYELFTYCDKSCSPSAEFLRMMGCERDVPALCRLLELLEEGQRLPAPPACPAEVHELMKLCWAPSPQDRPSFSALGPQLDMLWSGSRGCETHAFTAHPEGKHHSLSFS
Source text: Co-crystal structures were obtained for compounds 1, 3 and 4 each bound to human JAK3. The resolutions for the complex structures were at 2.73 Å, 2.80 Å, and 2.64 Å respectively for compound 1, compound 3 and compound 4. […] Based on a distance of less than 3.5 Å of the donor and acceptor atoms four specific hydrogen bonds were identified for each of the ligands, namely to the main chain atoms of Glu903, Leu905 and Phe968 as well as the side chain atoms of Glu871. An additional hydrogen bond was identified for compound 1 to the side chain atoms of Asp 912. […] The S—H moiety of the cysteine residue performs an addition reaction to the Michael system. The observed results of the covalent binding interaction in the crystal structures confirms the irreversible binding nature for each of these ligands to JAK3.

Row | Compound | binding mode in co-crystal structure
1 | CN(C)C/C=C/C(=O)N1CC(COc2cc(-c3ccc(O)cc3)cc3[nH]ncc23)C1 [Compound 1, (E)-4-(dimethylamino)-1-(3-(((6-(4-hydroxyphenyl)-1H-indazol-4-yl)oxy)methyl)azetidin-1-yl)but-2-en-1-one] | covalently bound to Cys909 of JAK3
2 | CN(C)C/C=C/C(=O)N1CC(C(C)(C)Oc2cc(-c3ccc(O)c(Cl)c3)cc3[nH]ncc23)C1 [Compound 3, (E)-1-(3-(2-((6-(3-chloro-4-hydroxyphenyl)-1H-indazol-4-yl)oxy)propan-2-yl)azetidin-1-yl)-4-(dimethylamino)but-2-en-1-one] | covalently bound to Cys909 of JAK3
3 | C=CC(=O)N1CC(COc2nc(-c3ccc(O)cc3)nc3[nH]ncc23)C1 [Compound 4, 1-(3-(((6-(4-hydroxyphenyl)-1H-pyrazolo[3,4-d]pyrimidin-4-yl)oxy)methyl)azetidin-1-yl)prop-2-en-1-one] | covalently bound to Cys909 of JAK3

tested on: IL-2 stimulated pSTAT5 in CD4+ T cells; assay: Inhibition of IL-2 stimulated pSTAT5 in CD4+ T cells isolated from murine splenocytes; format: cell-based; conditions: Mus musculus, AlphaLisa, read-out: pIC50, inhibition of IL-2 stimulated pSTAT5 (converted)
Method: The potency of test compounds for inhibition of interleukin-2 (IL-2) stimulated STAT5 phosphorylation was measured in the CD4+ T cells isolated from murine splenocytes using AlphaLisa. Because IL-2 signals through JAK3, this assay provides a measure of JAK3 cellular potency in mouse.
Phosphorylated STAT5 was measured via the AlphaLISA SureFire Ultra pSTAT5 (Tyr694/699) kit (PerkinElmer).
CD4+ T cells were isolated from murine splenocytes via negative selection on a magnetic column (Miltnyi Biotec) and re-suspended in assay media (phenol red-free DMEM (Life Technologies) supplemented with 10% FBS (ATCC)). Cells were seeded at 50,000 cells/well in assay media (2 μL/well). Compounds were serially diluted in DMSO and diluted to 2× final concentration in assay media. Compound was added (4 μl/well) and the cells incubated at 37° C., 5% CO2 for 1 hour, followed by the addition of IL-2 (R&D Systems; final concentration 7 ng/ml) in pre-warmed assay media (2 μL) for 30 minutes. After cytokine stimulation, cells were lysed with 2 μl of 5× AlphaLisa Lysis Buffer (PerkinElmer). The lysate was shaken at 900 rpm for 10 minutes at room temperature (RT). Phosphorylated STAT5 was measured via the pSTAT5 AlphaLisa kit (PerkinElmer). Freshly prepared acceptor bead mixture was dispensed onto lysate (5 ul) under green filtered <100 lux light. Plates were shaken at 900 rpm for 2 mins, briefly spun down, and incubated for 2 hrs at RT in the dark. Donor beads were dispensed (5 μl) under green filtered <100 lux light. Plates were shaken at 900 rpm for 2 mins, briefly spun down, and incubated overnight at RT in the dark. Luminescence was measured with excitation at 689 nm and emission at 570 nm using an EnVision plate reader (PerkinElmer) under green filtered <100 lux light.
To determine the inhibitory potency of test compounds in response to IL-2, the average emission intensity of beads bound to pSTAT5 was measured in primary CD4+ T cells isolated from murine splenocytes. IC50 values were determined from analysis of the inhibition curves of signal intensity vs compound concentration. Data are expressed as pIC50 (negative decadic logarithm IC50) values (mean±standard deviation).

Row | Compound | IC50 [nM]
4 | C=CC(=O)N1CC(C(C)(C)Oc2cc(-c3ccc(O)cc3)nc3[nH]ncc23)C1 [Compound 20, 1-(3-(2-((6-(4-hydroxyphenyl)-1H-pyrazolo[3,4-b]pyridin-4-yl)oxy)propan-2-yl)azetidin-1-yl)prop-2-en-1-one] | < 1000
5 | C=CC(=O)N1CC(C)(COc2nc(-c3ccc(O)c(F)c3)nc3[nH]ncc23)C1 [Compound 21, 1-(3-(((6-(3-fluoro-4-hydroxyphenyl)-1H-pyrazolo[3,4-d]pyrimidin-4-yl)oxy)methyl)-3-methylazetidin-1-yl)prop-2-en-1-one] | < 1000
6 | C=CC(=O)N1CC(CC)(COc2cc(-c3ccc(O)cc3)nc3[nH]ncc23)C1 [Compound 22, 1-(3-ethyl-3-(((6-(4-hydroxyphenyl)-1H-pyrazolo[3,4-b]pyridin-4-yl)oxy)methyl)azetidin-1-yl)prop-2-en-1-one] | < 1000
